Usually Ki stands for the equilibrium dissociation constant of an inhibitor or competing ligand from its target.

Ki data for 24 molecules are collected here from patent US11046714B2, “2,2-difluorodioxolo A2A receptor antagonists” (Merck Sharp & Dohme Corp., priority 2013, dated 2021).

Chain of human A2A receptor (P29274 whole entry): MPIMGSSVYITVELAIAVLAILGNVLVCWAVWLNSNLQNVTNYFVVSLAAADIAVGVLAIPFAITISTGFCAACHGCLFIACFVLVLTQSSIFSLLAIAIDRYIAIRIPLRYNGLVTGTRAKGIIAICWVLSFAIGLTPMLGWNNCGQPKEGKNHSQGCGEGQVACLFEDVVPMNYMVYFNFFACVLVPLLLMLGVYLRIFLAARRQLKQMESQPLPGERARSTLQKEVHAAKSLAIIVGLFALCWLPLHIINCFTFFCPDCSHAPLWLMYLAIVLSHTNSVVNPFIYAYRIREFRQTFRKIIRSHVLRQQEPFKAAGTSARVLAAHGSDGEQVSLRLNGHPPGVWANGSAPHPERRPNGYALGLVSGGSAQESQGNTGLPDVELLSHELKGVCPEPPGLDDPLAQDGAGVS

This test addresses human A2A receptor (Homo sapiens (Human), UniProt P29274). The experiment in a line: competition binding assay using Scintillation Proximity technology. The note with it: membranes from CHO-K1 cells expressing the human A2a receptor; 2.0 nM tritiated compound; Cheng-Prusoff. The procedure:
The utility of the compounds in accordance with the present invention as A2A receptor antagonists may be readily determined without undue experimentation by methodologies well known in the art, including by a competition binding assay using Scintillation Proximity technology. Briefly, membranes from CHO-K1 cells expressing the human A2A receptor are incubated with a test compound at various concentrations, e.g., ranging from 3000 nM to 0.15 nM, in a reaction mixture also containing a tritiated form of 5-amino-7-[2-phenethyl]-2-(furan-2-yl)-7H-pyrazolo[4,3-e][1,2,4]triazolo[1,5-c]pyrimidine (the tritiated compound) and wheatgerm agglutin-coated yttrium silicate SPA beads at room temperature. The beads are then allowed to settle to the bottom of the wells, after which the membrane-associated radioactivity is determined by scintillation counting in a microplate reader. Ki values can be determined using the Cheng-Prusoff equation.
Thus, 1.0 μg of membranes from CHO-K1 cells expressing the human A2a receptor were incubated with a compound of the invention at concentrations ranging from 3000 nM to 0.15 nM in a reaction mixture also containing 2.0 nM of a tritiated form of 5-amino-7-[2-phenethyl]-2-(furan-2-yl)-7H-pyrazolo[4,3-e][1,2,4]triazolo[1,5-c]pyrimidine (the tritiated compound) and 100 μg of wheatgerm agglutin-coated yttrium silicate SPA beads for one hour at room temperature with agitation. The beads were then allowed to settle to the bottom of the wells for 1 hr, after which the membrane-associated radioactivity was determined by scintillation counting in a TopCount microplate reader. Ki values were determined using the Cheng-Prusoff equation.
Summary of Materials and Methods Used in A2a Activity Determination:
• Membranes from CHO-K1 cells expressing the human Adenosine2A receptor (Perkin-Elmer #RBHA2AM400UA). • The tritiated compound was prepared according to published methods. • Wheatgerm agglutinin-coated yttrium silicate SPA beads (GE Healthcare #RPNQ0023). Dilute to 25 mg/ml in Assay Buffer. • Assay Buffer: Dulbecco's calcium and magnesium free phosphate buffered saline+10 mM MgCl2 • Adenosine deaminase (ADA) from calf intestine, 10 mg/2 ml (Roche #10 102 105 001). • DMSO • A2a antagonist standard (9-chloro-1-(2-furanyl)-[1,2,4]triazolo[1,5-c]quinazolin-5-amine from Tocris Bioscience) Compound Dilution • Make eight 1:3 serial dilutions in 100% DMSO from a 3 mM compound stock. • Transfer 50 nL of compound into a 384-well OptiPlate (Perkin Elmer). • Typically, final concentrations of compound used in the assay ranged from 3000 nM to 0.152 nM. Radioisotope • Dilute a solution of the tritiated compound to 5.0 nM in assay buffer. This is a 2.5× solution. The final concentration in the assay is 2.0 nM. Calculate the concentration by counting two 5 μL aliquots. Membrane Preparation • Use 1.0 μg of membrane/well. Dilute membranes to 33 μg/mL in assay buffer. Treat with 20 μg/mL ADA for 15 minutes at room temperature to degrade endogenous adenosine. Membrane-Bead Mixture • Use 100 μg/well wheatgerm agglutinin-coated yttrium silicate SPA beads. • Mix ADA-treated membranes and SPA beads together for 30 min prior to assay. Assay Assembly • To the Perkin-Elmer Optiplate-384 containing the compound titration add 20 μL of 2.5× solution of the tritiated compound and 30 μL of the membrane-bead mixture. Incubate for one hour at room temperature with agitation. • Include total binding (assay buffer+1% DMSO) and non-specific binding (CGS 15943, 1 μM) wells. Counting • Allow the beads to settle for one hour. • Count in TopCount. Calculations • A curve fitting program (i.e., Prism, Activity Base, Chemcart) is used to determine the EC50. The Ki value is calculated using the Cheng-Prusoff equation. Ki=EC50/(1+(radioligand concentration/Kd))
In general terms: In a scintillation proximity assay essentially only radioactivity close to the scintillant gives light.
On to `C[C@@H]1CN(CCc2nc3c4ccc5c(c4nc(N)n3n2)OC(F)(F)O5)CCO1` [Example 42, 2,2-difluoro-8-{2-[(2R)-2-methylmorpholin-4-yl]ethyl}[1,3]dioxolo[4,5-h][1,2,4]triazolo[1,5-c]quinazolin-5-amine], for which the Ki was 11 nM.
Next, `Nc1nc2c3c(ccc2c2nc(CCN4CCCC(F)(F)C4)nn12)OC(F)(F)O3` [Example 29, 8-[2-(3,3-difluoropiperidin-1-yl)ethyl]-2,2-difluoro[1,3] dioxolo[4,5-h][1,2,4]triazolo [1,5-c]quinazolin-5-amine]: 1.6 nM; `Cc1cc2n(n1)CCN([C@H](C)Cc1nc3c4ccc5c(c4nc(N)n3n1)OC(F)(F)O5)C2` [Example 83, 2,2-difluoro-8-[(2R)-2-(2-methyl-6,7-dihydropyrazolo[1,5-a]pyrazin-5(4H)-yl)propyl][1,3]dioxolo[4,5-h] [1,2,4]triazolo[1,5-c]quinazolin-5-amine]: 3.8 nM.
Under `Nc1nc2c3c(ccc2c2nc(CCCN4Cc5cccnc5C4)nn12)OC(F)(F)O3` [Example 137, 8-(3-(5H-pyrrolo[3,4-b]pyridin-6(7H)-yl)propyl)-2,2-difluoro-[1,3]dioxolo[4,5-h][1,2,4]triazolo[1,5-c]quinazolin-5-amine] stands 1.9 nM; under `Nc1nc2c3c(ccc2c2nc([C@@H]4CCCN(CC(F)(F)F)C4)nn12)OC(F)(F)O3` [Example 138, (R)-2,2-difluoro-8-(1-(2,2,2-trifluoroethyl)piperidin-3-yl)-[1,3]dioxolo[4,5-h][1,2,4]triazolo[1,5-c]quinazolin-5-amine], 1 nM; under `CO[C@@H]1CCCN(CCc2nc3c4ccc5c(c4nc(N)n3n2)OC(F)(F)O5)C1` [Example 40, 2,2-difluoro-8-{2-[(3R)-3-methoxypiperidin-1-yl]ethyl}[1,3]dioxolo[4,5-h][1,2,4]triazolo[1,5-c]quinazolin-5-amine], 13 nM.
In turn, `C[C@H](Cc1nc2c3ccc4c(c3nc(N)n2n1)OC(F)(F)O4)N1Cc2ccncc2C1` [Example 74, (R)-8-(2-(1H-pyrrolo[3,4-c]pyridin-2(3H)-yl)propyl)-2,2-difluoro-[1,3]dioxolo[4,5-h][1,2,4]triazolo[1,5-c]quinazolin-5-amine] yielded a Ki of 7.1 nM. This Ki is about 1.8-fold lower than that of the molecule before.
The molecule `Nc1nc2c3c(ccc2c2nc(CCN4Cc5cccnc5C4)nn12)OC(F)(F)O3` [Example 6] showed an inhibition constant (Ki) of 6.5 nM.
Under `Nc1nc2c3c(ccc2c2nc(C4CCCN(c5cc(F)cc(F)c5)C4)nn12)OC(F)(F)O3` (single isomer, unassigned) [Example 144, (R or S)-8-[1-(3,5-difluorophenyl)piperidin-3-yl]-2,2-difluoro[1,3] dioxolo[4,5-h][1,2,4]triazolo[1,5-c]quinazolin-5-amine] stands 1.2 nM; under `Nc1nc2c3c(ccc2c2nc(CN4CCC(F)(F)C4)nn12)OC(F)(F)O3` [Example 116, 8-[(3,3-difluoropyrrolidin-1-yl)methyl]-2,2-difluoro[1,3]dioxolo[4,5-h][1,2,4] triazolo[1,5-c]quinazolin-5-amine], 1.8 nM; under `Nc1nc2c3c(ccc2c2nc(Cn4cccn4)nn12)OC(F)(F)O3` [Example 128, 8-((1H-pyrazol-1-yl)methyl)-2,2-difluoro-[1,3]dioxolo[4,5-h][1,2,4]triazolo[1,5-c]quinazolin-5-amine], 2.5 nM.
Under `CN(C)Cc1nc2c3ccc4c(c3nc(N)n2n1)OC(F)(F)O4` [Example 126, 8-[(dimethylamino)methyl]-2,2-difluoro[1,3]dioxolo[4,5-h][1,2,4] triazolo[1,5-c]quinazolin-5-amine] stands 29 nM.
Next, `C[C@H](Cc1nc2c3ccc4c(c3nc(N)n2n1)OC(F)(F)O4)N1CCc2ccncc2C1` [Example 77, 8-[(2R)-2-(3,4-dihydro-2,7-naphthyridin-2(1H)-yl)propyl]-2,2-difluoro[1,3]dioxolo[4,5-h] [1,2,4]triazolo[1,5-c]quinazolin-5-amine]: 3.9 nM.
On to `CC1(F)CCN(CCc2nc3c4ccc5c(c4nc(N)n3n2)OC(F)(F)O5)CC1` [Example 28, 2,2-difluoro-8-[2-(4-fluoro-4-methylpiperidin-1-yl)ethyl] [1,3]dioxolo[4,5-h][1,2,4] triazolo[1,5-c]quinazolin-5-amine], for which the affinity corresponds to a Ki of 11 nM.
Under `C[C@@H]1CN(c2nsnc2Cl)CCN1Cc1nc2c3ccc4c(c3nc(N)n2n1)OC(F)(F)O4` [Example 108, 8-{[(2R)-4-(4-chloro-1,2,5-thiadiazol-3-yl)-2-methylpiperazin-1-yl]methyl}-2,2-difluoro[1,3] dioxolo[4,5-h][1,2,4]triazolo[1,5-c]quinazolin-5-amine] stands 7.5 nM; under `C[C@H](Cc1nc2c3ccc4c(c3nc(N)n2n1)OC(F)(F)O4)N1CCc2cccnc2C1` [Example 78, 8-[(2R)-2-(5,8-dihydro-1,7-naphthyridin-7(6H)-yl)propyl]-2,2-difluoro[1,3]dioxolo[4,5-h] [1,2,4]triazolo[1,5-c]quinazolin-5-amine], 1.4 nM; under `C[C@H](Cc1nc2c3ccc4c(c3nc(N)n2n1)OC(F)(F)O4)N1CC(C)(F)C1` [Example 84, 2,2-difluoro-8-[(2R)-2-(3-fluoro-3-methylazetidin-1-yl)propyl][1,3] dioxolo[4,5-h][1,2,4]triazolo[1,5-c]quinazolin-5-amine], 4.9 nM.
Next, `Nc1nc2c3c(ccc2c2nc(CCN4CC(O)(C(F)(F)F)C4)nn12)OC(F)(F)O3` [Example 20, 1-[2-(5-amino-2,2-difluoro [1,3]diozolo[4,5-h][1,2,4]triazolo[1,5-c]quinazolin-8-yl)ethyl]-3-(trifluoromethyl) azetidin-3-ol]: 12 nM; `Nc1nc2c3c(ccc2c2nc(CCN4CC[C@@H](c5ccccc5)C4)nn12)OC(F)(F)O3` [Example 36, 2,2-difluoro-8-{2-[(3S)-3-phenylpyrrolidin-1-yl]ethyl}[1,3]dioxolo[4,5-h][1,2,4]triazolo[1,5-c]quinazolin-5-amine]: 39 nM; `Nc1nc2c3c(ccc2c2nc(CN4C[C@H](F)[C@@H](F)C4)nn12)OC(F)(F)O3` [Example 115, 8-{[(3S,4S)-3,4-difluoropyrrolidin-1-yl]methyl}-2,2-difluoro[1,3] dioxolo[4,5-h][1,2,4]triazolo[1,5-c]quinazolin-5-amine]: 4.4 nM.
In the case of `CC(Cc1nc2c3ccc4c(c3nc(N)n2n1)OC(F)(F)O4)N1Cc2cccnc2C1` (single isomer, unassigned) [Example 91, 8-[(2R or 2S)-2-(5,7-dihydro-6H-pyrrolo[3,4-b]pyridin-6-yl)propyl]-2,2-difluoro[1,3]dioxolo[4,5-h][1,2,4]triazolo[1,5-c]quinazolin-5-amine], the inhibition constant (Ki) turned out to be 1.2 nM.
Next, `CN1CCN(CCc2nc3c4ccc5c(c4nc(N)n3n2)OC(F)(F)O5)CC1=O` [Example 47, 4-[2-(5-amino-2,2-difluoro[1,3]dioxolo[4,5-h][1,2,4]triazolo [1,5-c]quinazolin-8-yl)ethyl]-1-methylpiperazin-2-one]: 1.7 nM; `COC(=O)C(Cc1nc2c3ccc4c(c3nc(N)n2n1)OC(F)(F)O4)C(=O)OC` [Example 148, dimethyl [(5-amino-2,2-difluoro[1,3]dioxolo[4,5-h][1,2,4]triazolo[1,5-c]quinazolin-8-yl)methyl]propanedioate]: 2 nM; `CC(F)(F)CN1CC(Cc2nc3c4ccc5c(c4nc(N)n3n2)OC(F)(F)O5)C1` [Example 152, 8-{[1-(2,2-difluoropropyl)azetidin-3-yl]methyl}-2,2-difluoro[1,3] dioxolo[4,5-h][1,2,4]triazolo[1,5-c]quinazolin-5-amine]: 5.5 nM.
